Laboratory results from paper PMC6733504, “Effects of flavoring compounds used in electronic cigarette refill liquids on endothelial and vascular function” (PLoS ONE, 2019).
Where two headings read alike, the source gives them in different places.

Tests used:
[1] = tested on: endothelium-denuded rat aortic rings; experiment: CaCl2-induced contractile response in endothelium-denuded aortic rings; details: Ca2+-free high K+ solution, CaCl2 0.156-2.5 mM
Description: Rings were treated with Ca2+-
4 free high K+ solution (containing 0.1 mM EG TA a n d 6 0 mM K+). The Ca2+-free
5 preparations were then cumulatively contracted with CaCl2 (0.156-2.5 mM) in the
6 absence or presence of cinnamaldehyde or eugenol. The established L-type Ca2+
9 Concentration-response curves obtained with different ring segments from a single
10 animal were averaged and counted as an individual experiment. Data are expressed
11 as mean values ±SEM ( n=3).
(1 picture or pasted object on this page, not shown here)

[2] = tested on: rat aortic rings; experiment: Effect of flavorings on vascular tone of U-46619 precontracted aortic rings; details: 95% CI
Description: Unsexed Sprague-Dawley rats (obtained from Charles River, Sulzfeld, Germany) were housed at the local animal facility in approved cages. […] Animals were euthanized in a box that was gradually filled with CO2 until vital signs had ceased (cessation of respiration and circulation). Subsequently, the thorax of the animals was opened, the thoracic aorta was removed, cleaned from connective tissue and immediately used for assessment of vessel function.
After equilibration for 60 min at the optimal resting tension of 20 mN, maximal contractile activity was determined with a depolarizing solution containing 60 mM K^+. […] When contraction had reached a stable plateau (~after 20 min) cumulative concentration-response curves were established with flavorings. Where indicated, the effects of the flavorings on vascular tone were tested in the presence of the NOS inhibitor N^G-nitro-L-arginine methyl ester (L-NAME, 0.2 mM).
Concentration-response curves of different ring segments from a single animal were averaged and counted as an individual experiment.

[3] = tested on: endothelial cells; experiment: MTT to formazan conversion (viability); format: cell-based, porcine; details: 1 mM, 60 minutes
Description: The viability of endothelial cells was judged by incubation with 1 mM of the flavoring compounds, followed by determination of 3-(4,5-dimethyl-2-thiazolyl)-2,5-diphenyltetrazolium bromide (MTT) to formazan conversion using the Cayman MTT Cell Proliferation Assay Kit purchased through VWR International (Vienna, Austria).

[4] = tested on: endothelial cells; experiment: LDH release (membrane integrity); details: 1 mM, 60 minutes; maximum = 1% Triton
Description: (§2) To test for membrane integrity, endothelial cells were assayed for release of lactate dehydrogenase (LDH) into the culture medium. Subsequent to incubation with flavoring compounds (1 mM each) for 1 hour, 20-μl aliquots of the culture media were mixed with 200 μl of reagent buffer (1 mM pyruvate and 0.1 mM NAD^+ in PBS). The decrease in light absorbance at 340 nm was monitored using a diode array spectrophotometer (Hewlett Packard 8452A). Maximum LDH release was determined by treating the cells with 1% Triton X-100.

[5] = tested on: endothelium-denuded rat aortic rings; experiment: cAMP and cGMP levels in endothelium-denuded aortic rings
Excerpt: 1 S4 Table. […]
2 endothelium-denuded rat aortic rings.
Flavoring (fmol x mg-1) (fmol x mg-1)
4 En d o th e liu m-denuded rings, treated with test compounds as described in the
5 Materials and methods section of the main text, were freeze-clamped when maximal
6 relaxation had been reached. Rings were homogenized in 5% trichloroacetic acid
7 and analyzed for cAMP and cGMP by radioimmunoassay. Forskolin and DEA/NO
8 were used to induce maximal accumulation of cAMP and cGMP, respectively. Data
9 shown are mean values±SEM of 3 (forskolin and DEA/NO) or 6 (basal,
10 cinnamaldehyde and eugenol) rings; n.d., not determined, *p<0.05 vs. basal (ANOVA
11 and Dunnett's post hoc test).

[6] = tested on: Porcine aortic endothelial cells (endothelial sGC); experiment: DEA/NO-induced endothelial cGMP formation; format: cell-based; details: for DEA/NO-stimulated endothelial cGMP formation: 1 mM
Description: (§1) Porcine aortic endothelial cells were isolated as described and cultured at 37°C, 5% CO2 for up to 3 passages in Dulbecco´s modified Eagle´s medium, containing 10% heat-inactivated fetal calf serum (FCS), 100 U/ml penicillin, 0.1 mg/ml streptomycin, and 1.25 μg/ml amphotericin B. Prior to experiments, cells were subcultured into 24-well plates (determination of cGMP formation) or 6-well plates (determination of L-citrulline formation).
Accumulation of intracellular 3',5'-cyclic GMP (cGMP) was determined as previously described. […] Reactions were started by addition of the Ca^2+ ionophore A 23187 (final concentration 1 μM) or the NO donor DEA/NO (final concentration 1 μM) and terminated after 4 minutes by removal of the incubation medium and addition of 0.01 M HCl. Within 1 h, intracellular cGMP was completely released into the supernatant and measured by radioimmunoassay.

[7] = rats, cited from earlier work
[8] = Electrochemical determination of NO released from DEA/NO (NO scavenging); details: DEA/NO 1 μM
Description: Scavenging of NO by flavoring compounds was studied with a nitric oxide sensor (ISO-NOP, World Precision Instruments, Berlin, Germany), calibrated with acidified nitrite as described previously. Free NO radical was generated by incubation of DEA/NO (1 μM) in 1 ml of 100 mM phosphate buffer, pH 7.4, in the absence or presence of superoxide dismutase (2500 U/ml) at ambient temperature. At the peak concentration of NO, flavoring compounds (10 μl of DSMO stock solutions) were added, DMSO served as vehicle control.

[9] = tested on: Porcine aortic endothelial cells (endogenous NO/cGMP pathway); experiment: A23187 (Ca2+ ionophore)-induced endothelial cGMP formation; format: cell-based
Description: as §1
Accumulation of intracellular 3',5'-cyclic GMP (cGMP) was determined as previously described. Briefly, endothelial cells were washed and preincubated with the compounds to be tested for 15 minutes at 37°C in 50 mM Tris buffer, pH 7.4, containing 100 mM NaCl, 5 mM KCl, 1 mM MgCl2, 2.5 mM CaCl2, 1 mM 3-isobutyl-1-methylxanthine, and 1 μM indomethacin. Reactions were started by addition of the Ca^2+ ionophore A 23187 (final concentration 1 μM) or the NO donor DEA/NO (final concentration 1 μM) and terminated after 4 minutes by removal of the incubation medium and addition of 0.01 M HCl. Within 1 h, intracellular cGMP was completely released into the supernatant and measured by radioimmunoassay.

[10] = Estimated plasma concentration upon inhalation of cinnamaldehyde-containing aerosol; set-up: species or system human; details: 10 ml of 6.9 mM liquid, plasma volume 3 liters, 100% bioavailability, no distribution, metabolism or clearance
[11] = tested on: endothelial cells; details: pig, 1 h, 1 mM
Description: as §2

[12] = Rattus norvegicus, absence of L-NAME, read-out: EC50 of relaxation of pre-contracted vessels (Control)
[13] = Rattus norvegicus, presence of L-NAME 0.2 mM, read-out: EC50 of relaxation of pre-contracted vessels (L-NAME)

Row | SMILES | Effect on CaCl2-induced contraction [1] | EC50 [2, 12] | EC50 [2, 13] | Formazan formation (% of control) [3] | cAMP ([5]; 1 mM) | cGMP ([5]; 1 mM) | cAMP ([5]; 10 mM) | cGMP ([5]; 10 mM) | other results
1 | C=CCc1ccc(O)c(OC)c1 [Eugenol, 2-Methoxy-4-(prop-2-en-1-yl)phenol] | significantly inhibited | ~500 µM | 500 µM | 107±4.6 % of control | 162±9 fmol x mg-1 | 81±4 fmol x mg-1 | 171±24 fmol x mg-1 | 71±18 fmol x mg-1 | EC50 ([2]; absence of L-NAME, read-out: EC50 of relaxation of pre-contracted vessels (Control)): 400 µM; LDH release (% of maximum) [4]: 0.4±0.23 % of maximum
2 | O=C/C=C/c1ccccc1 [Cinnamaldehyde, (2E)-3-Phenylprop-2-enal] | significantly inhibited | ~500 µM | 600 µM | 91±2.6 % of control | 200±36 fmol x mg-1 | 127±10 fmol x mg-1 | 161±7 fmol x mg-1 | 86±7 fmol x mg-1 | DEA/NO-stimulated endothelial cGMP formation ([6]; incubation for 15 minutes (Fig 2B)): 25.3±3.9 % of controls; DEA/NO-stimulated endothelial cGMP formation ([6]; incubation for 75 minutes (Fig 2B)): 10.4±2.4 % of controls; DEA/NO-induced cGMP formation ([6]; flavoring 1 mM, 15 min preincubation, 1 μM DEA/NO for 4 min (Fig 1B)): about 35 % of controls; Maximal plasma concentration ([7]; intravenous bolus 25 mg/kg): 20 µM; Maximal plasma concentration ([7]; oral 500 mg/kg): about 2 μM; Effect on recorded NO signal (NO scavenging) ([8]; 1 mM): only moderate effects; Effect on recorded NO signal (NO scavenging) ([8]; 10 mM): pronounced decrease; Concentration inhibiting Ca2+-stimulated endothelial cGMP accumulation [9]: ≥ 0.3 mM; A23187-induced cGMP formation ([9]; flavoring 1 mM, 15 min preincubation, 1 μM A23187 for 4 min (Fig 1A)): about 35 % of controls; Estimated plasma concentration [10]: 23 µM; LDH release (% of maximum) [11]: 1.8±0.50 % of maximum
